Assay results: patent US20140072567A1, “Methods Of Treating And Preventing Glucose Toxicity” (Walter and Eliza Hall Institute of Medical Research, ACN …, priority 2008, published 2014)

Key:
[1] = system: islets from wild type C57BL/6 mice; assay: DNA fragmentation assay (sub-diploid DNA, flow cytometry); type: cell-based; conditions: for DNA fragmentation: wild-type islets
Procedure: Uniformly sized islets (excluding very large or necrotic islets) were handpicked into 3.5 cm Petri dishes containing 1.1 mL of complete CMRL. Islets were then cultured with the appropriate stimuli to cause DNA fragmentation. At the end of the culture period, non-attached cells and islets were transferred into polypropylene tubes and washed in PBS. Islets were then dispersed with trypsin (0.1 mg/mL bovine trypsin (Calbiochem) and 2 mmol/L EDTA in PBS) for 5 min at 37° C. Islets were mechanically dispersed using a pipette, washed in PBS, and allowed to recover in complete CMRL medium for 1 h at 37° C. in 5% CO2. Cells were then washed in PBS and resuspended in 250 μL of hypotonic buffer containing 50 mg/mL propidium iodide (Sigma-Aldrich), 0.1% sodium citrate, and 0.1% TritonX-100 which stains nuclear DNA. The cells were then analyzed on a FACSCalibur (Becton Dickinson, Franklin Lakes, N.J., USA) using the FL3 channel. Cells undergoing apoptosis were identified by their sub-diploid DNA content as previously described (Riccardi and Nicoletti, 2006).

Fas = Fas expression on islet beta cells by flow cytometry; type: cell-based, mice; conditions: high glucose (33.3 mM, 4 days) compared to untreated controls
Procedure: (§1) FIG. 2: IL-1β or Fas are not required for glucose or ribose induced beta cell apoptosis. (A) 200 islets from wild-type, IL-1R^−/− and B6^lpr/lpr mice were cultured for 6 days in 5.6 mM low glucose medium (unt) or 33.3 mM D-glucose or for 4 days in 50 mM ribose. DNA fragmentation was measured by flow cytometry. (B) 100 wild-type islets were cultured for 7 days in 5.6 mM or 33.3 mM D-glucose with cytokines added in the last 4 days and iNOS expression, NO production and DNA fragmentation was measured. Representative Western blot for iNOS expression (β-actin used as loading control). (C) NO2 determination of culture supernatant (D) DNA fragmentation was measured by flow cytometry. (E) Wild-type islets were cultured in 50 mM ribose or cytokines for 2 days, 33.3 mM D-glucose for 4 days (solid lines) compared to islets cultured in 5.6 mM D-glucose (broken lines). Fas expression on β cells was analysed by FACS analysis. (F) Wild-type islets cultured for 7 days in 5.6 mM (−) or 33.3 mM (+) glucose with cytokines or FasL added in the last 4 days. The data represent the mean±S.E.M of three experiments. Islets cells were analysed for expression of Fas by flow cytometry as previously described (Thomas et al., 1999). Islets were dispersed into single cells as described above and stained using standard procedures. […]

[2] = system: islets from wild-type mice; assay: Cytochrome c release from mitochondria (flow cytometry); type: cell-based
Procedure: FIG. 1: Wild-type islets cultured in high concentrations of glucose or ribose undergo DNA fragmentation and mitochondrial release of cytochrome C, both indicative of apoptosis, and have a reduced ability to secrete insulin. (A) 200 islets from wild-type C57BL/6 mice were either cultured in low glucose medium (5.6 mM) (unt) or cultured in high glucose media (33.3 mM) for 6 days or high ribose medium (50 mM) for 4 days and DNA fragmentation was measured. Representative flow cytometry profiles are shown i). Data represent islets from 13-17 individual mice per group ii). Statistical significance; *p<0.001 compared with unt (one-way ANOVA). (B) 100 islets from wild-type mice were cultured under conditions mentioned above for 4 and 3 days respectively and cytochrome C release was measured. Representative flow cytometry profiles are shown i). Data represent islets from 4 individual mice per group. ii) Statistical significance; *p<0.001 ** p<0.05 compared with unt (one-way ANOVA). (C) wild-type islets were cultured in high concentrations of ribose (50 mM) for 2 days and insulin release was measured after glucose stimulation. Statistical significance; *p<0.01 compared with unt (one-way ANOVA). […]

iNOS = assay: Western blotting for iNOS expression in islets; type: cell-based, mice; conditions: islets cultured in high glucose (33.3 mM) in the presence of IFNγ
Procedure: as §1, with “Islets” for “Islets cells”, “were incubated” for “were analysed”, “for 4 days with cytokines” for “for expression of Fas by flow cytometry as previously described (Thomas et al., 1999). Islets were dispersed into single cells as described above”, “and 33.3 mM glucose, transferred to microcentrifuge tubes and washed three times in PBS.” for “and stained using standard procedures.”

bim = assay: Real-time qRT-PCR of islets, bim; type: cell-based, mice; conditions: for up-regulation of bim mRNA: islets exposed to high concentrations of glucose or ribose
Procedure: (§2) FIG. 7: Ribose induces expression of Puma and Bax in islets. Quantitative RT-PCR of wild-type islets cultured in control medium or medium containing 50 mM ribose, 33.3 mM glucose or 5 μM thapsigargin for 24 or 48 h. Relative RNA expression levels for (A) Puma (B) Bim and (C) Bax were calculated by normalizing to the signal for β-actin in each sample and comparison to islets cultured in control medium. Mean±SEM of 3-4 independent experiments is shown. Statistical significance *p<0.05, **p<0.01 compared with control (two-tailed paired t-test). RNA was prepared using the RNeasy Kit (Qiagen). First strand cDNA was prepared from 0.1-0.2 μg RNA using the High Capacity RNA-to-cDNA Master Mix (Applied Biosystems). Real-time PCR was performed using the ABI Prism 7900 (Applied Biosystems) and the Power SYBR Green PCR Master Mix (Applied Biosystems) in 15 μl reaction volumes. Data analyses were performed with the CT method using actin as an internal control. qRT-PCR was performed using the following forward and reverse primers (a kind gift from Drs DCS Huang and M Narita) (Table 1).

wild type islets = assay: Glucose-stimulated insulin secretion assay; type: cell-based, mice; conditions: wild type islets exposed to ribose (50 mM) for two days
Procedure: Insulin secretion assays were performed as previously described (Thomas et al., 2002). Two hundred islets were cultured in complete CMRL and ribose for 2 days, then washed three times in Krebs-Ringer bicarbonate buffer (KRB; 25 mmol/l HEPES, 115 mmol/l NaCl, 24 mmol/l NaHCO3, 5 mmol/l MgCl2, 2.5 mmol/l CaCl2, pH 7.4) with 3 mmol/l glucose and 0.1% BSA. Groups of 20 islets in quadruplicate were incubated for 30 min in 200 μl KRB containing 3 mmol/l glucose under 5% CO2/95% air with shaking at 37° C., followed by a second incubation in 200 μl KRB containing either 3 or 20 mmol/l glucose. Buffer was sampled for insulin after 30 min using a mouse insulin ELISA kit (Linco Research, Mo., USA).

bax = assay: Real-time qRT-PCR of islets, bax; type: cell-based, mice
Procedure: as §2

puma = assay: Real-time qRT-PCR of islets, puma; type: cell-based, mice
Procedure: as §2

bak = assay: Real-time qRT-PCR of islets, bak; type: cell-based, mice; conditions: 5 μM thapsigargin, data not shown
Procedure: as §2

Question: Which DNA fragmentation ([1]; 33.3 mM D-glucose, 6 days, compared to low glucose media (5.6 mM)) does the source give for `O=C[C@H](O)[C@@H](O)[C@H](O)[C@H](O)CO` [D-glucose] here?
Answer: Its DNA fragmentation is “modest but significant increase”.

Question: And the “Fas expression on islet cells” value (Fas)?
Answer: Its value is “slight but insignificant rise”.

Question: And the “release of cytochrome c from the mitochondria” value ([2]; high glucose (33.3 mM), 4 days, compared to untreated islets)?
Answer: Its value is “significant increase”.

Question: And the iNOS expression (iNOS)?
Answer: Its iNOS expression is “no iNOS expression”.

Question: And the “up-regulation of bim mRNA” value (bim)?
Answer: Its value is “no up-regulation”.

Question: What does the source list for `O=C[C@H](O)[C@H](O)[C@H](O)CO` [ribose, D-ribose]?
Answer: insulin secretory function after glucose stimulation (wild type islets): significant loss; DNA fragmentation ([1]; 50 mM ribose, 4-day period, compared to high concentrations of glucose): significantly more DNA fragmentation; release of cytochrome c from the mitochondria ([2]; high ribose (50 mM), 3 days, compared to high glucose): more pronounced; increase in expression of bax (bax; 50 mM ribose, 48 h): 4 fold; up-regulation of bim mRNA (bim): no up-regulation; Bim expression (bim; ribose incubation (50 mM)): remained unchanged; increase in expression of puma (puma; 50 mM ribose, 48 h): 4 fold

Question: How did the “increase in expression of bak” value (bak) turn out when `C/C=C(/C)C(=O)O[C@H]1C(C)=C2[C@H]([C@@H]1OC(=O)CCCCCCC)[C@@](C)(OC(C)=O)C[C@H](OC(=O)CCC)[C@@]1(O)[C@H]2OC(=O)[C@@]1(C)O` [thapsigargin, reference compound] was run?
Answer: Its value is 2-7 fold.

Question: And the “increase in expression of bax” value (bax; 5 μM thapsigargin, 24 or 48 h)?
Answer: Its value is 2-7 fold.

Question: And the “increase in expression of bim” value (bim; 5 μM thapsigargin)?
Answer: The value was “not”.

Question: And the “increase in expression of puma” value (puma; 5 μM thapsigargin, 24 or 48 h)?
Answer: Its value is 2-7 fold.

Question: For “z-Val-Ala-Aspfluoromethylketone [z-VAD.fmk, reference compound]”, which “inhibition of ribose-induced islet cell DNA fragmentation” value ([1]; pan-caspase inhibitor used at 100 μmol/L) is on record?
Answer: Its value is “significantly inhibited”.
